Source: publication PMC5667507, “A novel ^18F-labelled high affinity agent for PET imaging of the translocator protein” (Chemical Science, 2015)

What was measured:
TSPO [1] = target: T1, TSPO (Mus musculus, UniProt P50637); experiment: In vitro autoradiography, brain sections of G7 orthotopic mouse model of human glioblastoma; format: binding; settings: contralateral region; 3 nM tracer, 10 µM PK11195
T1 construct: The brain from a mouse bearing an intracranial G7 tumour was used; from tissue; host or cells: 20 µm coronal cryosections of CD1 nude mouse brain with an intracranial G7 human glioblastoma xenograft
Source text: (§1) An initial investigation of the potential of [^18F]-AB5186 6 to bind to TSPO in brain involved in vitro autoradiography using a G7 orthotopic mouse model of human glioblastoma.[25] Autoradiography allows the distribution of a radiolabelled compound to be visualised in intact biological tissue sections.[26] […] Displacement of [^18F]-AB5186 6 by the TSPO ligand PK11195 confirms the in vitro specificity of the tracer for TSPO in brain tissue.
(§2) The fraction containing 18F-AB5186 6 was concentrated in vacuo and then reconstituted in 2 mL of a 10% ethanol/0.9% saline solution. Passing the sample through a pre-treated 13 mm 0.2 µm filter then completed formulation of the radiotracer. The identity of the radiolabelled product was confirmed by co-injection with a cold sample of AB5186 6. Quality control was performed by analytical HPLC, using a Phenomenex Synergi 4 µm Hydro-RP 80A (150 × 4.60 mm) column and the mobile phase described above for the semi-prep HPLC purification step. Radiochemical purity was determined by measuring the area under the peaks on the chromatogram, and specific activity was calculated using a standard curve.
(§3) 8. Radio-HPLC chromatogram of [18F]-AB5186 (6) after purification
(§4) CD1 nude mice had […] of either G7 or U87MG-Luc2 cultured cells implanted intracranially into the caudate nucleus using standard stereotactic procedures. Successful implantation of U87MG-Luc2 tumours was confirmed by performing IVIS® scans approximately two weeks following the procedure. Animals were used for ex vivo autoradiography and PET imaging studies 21–30 days post tumour implantation. Prior to any procedure mice were anaesthetised using inhaled isoflurane (in medical oxygen; induction 5.0%; maintenance 2.0–3.0%). Body temperature was maintained using a heating pad.
(§5) 10. In vitro Autoradiography5 Methodology
(§6) The brain from a mouse bearing an intracranial G7 tumour was used. […]
(§7) temperature. Non-specific binding was determined in adjacent sections by incubating with [18F]- AB5186 6 in the presence of 10 µM PK11195 (Tocris, UK). […]

TSPO [2] = experiment: as above; format: binding
Source text: as §1, §2, §3, §4, §5, §6, §7

[3] = Metabolite analysis of arterial blood samples from baboon (parent fraction); format: in vivo, baboon (Papio anubis); settings: baboon arterial plasma, 60 minutes post-injection
Method: Following PET reconstruction and co-registration to an MRI (Fig. 7a), a time–activity curve for the tracer in the whole brain was established (Fig. 7b). […]
generated and SUV determined as the concentration in the VOI divided by the injected dose divided […]
software (GraphPad Softare Inc).
Arterial blood samples were collected from the baboon every 45 s until 6 min after injection of […]
exception of the samples collected for metabolite analysis (3.5 mL each), all blood samples were 1 mL each. Samples for metabolite analysis were collected at 6, 15, 30, 60, 120, 150 and 240 min after radiotracer bolus injection. After blood collection, all samples were kept on ice until analysed.
Radioactivity in whole blood and plasma was assessed with a well-type γ-counter using a 400–1400 keV window (Perkin Elmer Wallac 2480, USA). Plasma samples were processed by acetonitrile denaturation and analysed by HPLC on a Luna C18 column with a mobile phase of MeOH/H2O-Et3N (0.2%) 80/20 at a flow rate of 4 mL/min to estimate the parent fraction.

T1 sequence (P50637 whole entry): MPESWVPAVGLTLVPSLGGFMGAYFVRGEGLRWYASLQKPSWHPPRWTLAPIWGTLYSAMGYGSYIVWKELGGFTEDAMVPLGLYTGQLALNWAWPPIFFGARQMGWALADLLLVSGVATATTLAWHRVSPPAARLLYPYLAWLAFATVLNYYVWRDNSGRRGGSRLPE

CCN(CC)C(=O)c1nc2ccccc2c(-c2ccccc2)c1C[18F] [[^18F]-AB5186 6]
displacement of tracer binding by excess unlabelled PK11195 (TSPO [1]): 23% | total binding, tumour tissue compared to contralateral side (TSPO [2]; in vitro autoradiograms, G7 xenograft): markedly increased | displacement of tracer binding by excess unlabelled PK11195 (TSPO [2]; tumour tissue, 3 nM tracer, 10 µM PK11195): 76% | parent still intact [3]: 29.8%
